Earlier results on one compound are cited in US20040214861A1, “Compositions of a cyclooxygenase-2 selective inhibitors and 5-HT1B1D antagonists for the treatment and prevention of migraine” (Pharmacia Corporation, priority 2003, published 2004).

The structures appear in SMILES notation.

The conditions of the series: at one and two hours after administration; compared with sumatriptan.

For `CN1CCC[C@@H]1Cc1c[nH]c2ccc(CCS(=O)(=O)c3ccccc3)cc12` [eletriptan], the effectiveness after administration entry was “greater effectiveness at one and two hours after administration than sumatriptan”.
